Tests used:
[1] = test system: female Albino Wistar rats; assay: hair regrowth assay; assay type: in vivo, rat; settings: six month old female Albino Wistar rats; 25, 50, 75 mg/kg body wt daily for four months; dorsal hair plucked from 1.5 cm×1.5 cm, scored two weeks later from digital photographs
Procedure: (§1) To determine the efficacy of resveratrol-arginine conjugate, six month old female Albino Wistar rats were divided into seven groups (six rats per group) and given the following daily treatment for four months:
(§2) Group 2: 25 mg ResArgin/kg body wt; Group 3: 50 mg ResArgin/kg body wt; Group 4: 75 mg ResArgin/kg body wt; Group 5: 25 mg Resveratrol/kg body wt; Group 6: 50 mg Resveratrol/kg body wt;
In another embodiment, hair regrowth assay was done and quantified. Compared to the Control group, hair regrowth was improved in the ResArgin and resveratrol groups over the experimental period.
In the hair regrowth assay, dorsal hair was removed by plucking from a square of approximately 1.5 cm×1.5 cm. Hair growth and re-growth was scored two weeks later on the basis of digital photographs.

[2] = test system: female Albino Wistar rats; assay: glucose tolerance test; assay type: in vivo, rat; settings: six month old female Albino Wistar rats; 25, 50, 75 mg/kg body wt daily for four months; 6 h fast, 2 g/kg intraperitoneally, blood at 0-120 min; p<0.01 ResArgin, p<0.05 resveratrol
Procedure: as §1, §2
Group 7: 75 mg Resveratrol/kg body wt. In one embodiment, glucose tolerance levels were tested via a glucose tolerance test and analysis was performed. Compared to the Control group, glucose tolerance was improved in the ResArgin and resveratrol groups (p<0.01 and p<0.05 respectively) over the experimental period.
In one embodiment, glucose tolerance tests were performed after having the rats fast for 6 hours and injecting 2 g/kg body weight intraperitoneally. Blood was then collected from the tail vein at 0, 15, 30, 60 and 120 minutes after injection.

`Oc1ccc(C=Cc2cc(O)cc(O)c2)cc1` [resveratrol] was tested, and the “hair regrowth compared to the Control group” value [1] was “improved” and the “glucose tolerance compared to the Control group” value [2] was “improved”.

Reference: patent US20170119640A1, “Methods of Improving Glucose Tolerance, Hair Regrowth, and Bio-Availability” (priority 2015, published 2017)
